Test results as given in patent publication US20240115557A1, “INHIBITORS OF RNA-GUIDED NUCLEASES AND USES THEREOF” (The Brigham and Women's Hospital, Inc., priority 2022, published 2024).

Experiments:
SpCas9 = SpCas9 (Streptococcus pyogenes serotype M1, UniProt Q99ZW2); assay: Strand displacement assay (SDA) / cumulative activity assay (CAA), SpCas9 primary screen; format: biochemical; conditions: Primary Screen (150 min); for Normalized Z score 1: replicate 1; for Normalized Z score 2: replicate 2
Sequence of SpCas9 (Q99ZW2 whole entry): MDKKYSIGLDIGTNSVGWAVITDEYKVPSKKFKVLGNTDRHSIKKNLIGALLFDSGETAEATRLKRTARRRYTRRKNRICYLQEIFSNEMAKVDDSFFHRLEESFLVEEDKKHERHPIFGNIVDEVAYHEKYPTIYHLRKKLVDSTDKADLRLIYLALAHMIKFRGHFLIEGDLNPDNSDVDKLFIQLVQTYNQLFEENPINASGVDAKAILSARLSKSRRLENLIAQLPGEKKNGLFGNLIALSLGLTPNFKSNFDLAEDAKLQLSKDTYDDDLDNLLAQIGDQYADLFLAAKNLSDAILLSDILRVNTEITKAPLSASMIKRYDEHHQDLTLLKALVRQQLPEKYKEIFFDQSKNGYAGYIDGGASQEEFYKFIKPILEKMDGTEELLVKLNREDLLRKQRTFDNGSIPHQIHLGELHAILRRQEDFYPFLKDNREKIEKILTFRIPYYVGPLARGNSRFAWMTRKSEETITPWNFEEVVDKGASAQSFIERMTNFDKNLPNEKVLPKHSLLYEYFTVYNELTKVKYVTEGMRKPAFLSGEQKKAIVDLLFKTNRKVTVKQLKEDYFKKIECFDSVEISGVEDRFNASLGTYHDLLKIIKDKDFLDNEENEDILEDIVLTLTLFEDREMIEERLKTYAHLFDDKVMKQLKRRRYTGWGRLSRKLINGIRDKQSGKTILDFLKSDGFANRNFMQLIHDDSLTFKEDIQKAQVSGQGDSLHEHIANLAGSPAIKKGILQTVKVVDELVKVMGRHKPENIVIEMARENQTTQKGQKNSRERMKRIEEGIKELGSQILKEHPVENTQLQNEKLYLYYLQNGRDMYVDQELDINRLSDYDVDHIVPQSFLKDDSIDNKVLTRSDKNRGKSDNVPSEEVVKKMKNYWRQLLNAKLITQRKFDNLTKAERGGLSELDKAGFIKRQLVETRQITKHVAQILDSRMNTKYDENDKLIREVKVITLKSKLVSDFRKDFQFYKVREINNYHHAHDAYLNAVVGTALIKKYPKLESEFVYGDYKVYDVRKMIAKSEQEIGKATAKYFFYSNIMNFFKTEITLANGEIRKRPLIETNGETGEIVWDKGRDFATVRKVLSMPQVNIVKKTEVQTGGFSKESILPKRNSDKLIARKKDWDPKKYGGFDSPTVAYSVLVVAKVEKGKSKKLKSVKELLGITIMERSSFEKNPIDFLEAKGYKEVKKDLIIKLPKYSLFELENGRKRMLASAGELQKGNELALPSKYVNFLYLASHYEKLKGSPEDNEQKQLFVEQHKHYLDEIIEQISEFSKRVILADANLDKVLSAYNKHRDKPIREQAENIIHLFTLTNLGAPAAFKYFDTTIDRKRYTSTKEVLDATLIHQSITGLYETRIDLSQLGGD
Experimental: Screening of inhibitors was via a high throughput pipeline, as depicted in FIG. 29. The first screening is via a strand displacement assay (SDA) for detecting nuclease activity (FIG. 27A, 28A). The Cpf1/Cas12 protein/DNA complex has a different structure from Cas9 and requires optimization of the potential fluorophore attachment sites (Yamano, T et al., Cell, 2016). (FIG. 28A). Next screened compounds are evaluated in an eGFP cell assay, and for eGFP dose. Those compounds are further narrowed via a HiBiT assay and finally evaluated in the surveyor assay. SAR evaluations are performed to arrive at lead compounds for further evaluations and variations. General methodology for the assays is as described in at [0253]-[0301] of U.S. Patent Application 62/831,143 filed Apr. 8, 2019, incorporated herein by reference.
The 3′ end of the displacing single-stranded DNA was labeled with a quencher. Following nuclease cleavage of the substrate, the 3′-labeled quenching DNA strand (present in excess) could outcompete the weakly held 3′ strand to anneal to the 5′ strand. The resulting FRET fluorescence quenching provides an optical readout for nuclease activity (FIG. 62A).
Typically, SpCas9: gRNA (1:1.2 ratio) RNP was pre-formed at 1 μM in Cas9 assay buffer (20 mM Tris-HCl, pH=7.5, 100 mM KCl, 5 mM MgCl2) for 5 min at 4° C. before diluting to 10 nM in Cas9 assay buffer (2× final concentration). 25 μL of the Cas9 2× stock was manually dispensed to a black 384-well plate (Corning 3575) using electronic pipette. […] Following this, pre-annealed Alexa-Fluor 647 labeled substrate and quencher were also diluted to 1 nM and 5 nM in Cas9 assay buffer, respectively (2× stock solution). Next, 25 μL of the substrate/quencher solution was added manually to each well of the Cas9-containing 384-well plates using an electronic pipette and was incubated at 37° C. for 2.5 h. Fluorescent signals were read with the microplate reader set to read Alexa-Fluor 647 fluorescence. Assay was performed similarly with SaCas9 and FnCas12a using the respective enzyme, gRNA, substrate, and quencher oligos. […]

SaCas9 = target: T1, SaCas9 (Staphylococcus aureus, UniProt J7RUA5); assay: Strand displacement assay, SaCas9 primary screen; format: biochemical; conditions: for Auto Zscore Rep 1 / Auto Zscore Rep 2 / Normalized Zscore Rep 1 / Normalized Zscore Rep 2: SaCas9 primary screen; for Auto Zscore Rep 1 / Normalized Zscore Rep 1: replicate 1; for Auto Zscore Rep 2 / Normalized Zscore Rep 2: replicate 2; for Normalized Zscore Rep 1 / Normalized Zscore Rep 2: weaker potential hits; for 3 sigma Hit: flag 1 = hit at 3 sigma; for 5 sigma Hit: flag 1 = hit at 5 sigma
T1 sequence (J7RUA5 1-1053): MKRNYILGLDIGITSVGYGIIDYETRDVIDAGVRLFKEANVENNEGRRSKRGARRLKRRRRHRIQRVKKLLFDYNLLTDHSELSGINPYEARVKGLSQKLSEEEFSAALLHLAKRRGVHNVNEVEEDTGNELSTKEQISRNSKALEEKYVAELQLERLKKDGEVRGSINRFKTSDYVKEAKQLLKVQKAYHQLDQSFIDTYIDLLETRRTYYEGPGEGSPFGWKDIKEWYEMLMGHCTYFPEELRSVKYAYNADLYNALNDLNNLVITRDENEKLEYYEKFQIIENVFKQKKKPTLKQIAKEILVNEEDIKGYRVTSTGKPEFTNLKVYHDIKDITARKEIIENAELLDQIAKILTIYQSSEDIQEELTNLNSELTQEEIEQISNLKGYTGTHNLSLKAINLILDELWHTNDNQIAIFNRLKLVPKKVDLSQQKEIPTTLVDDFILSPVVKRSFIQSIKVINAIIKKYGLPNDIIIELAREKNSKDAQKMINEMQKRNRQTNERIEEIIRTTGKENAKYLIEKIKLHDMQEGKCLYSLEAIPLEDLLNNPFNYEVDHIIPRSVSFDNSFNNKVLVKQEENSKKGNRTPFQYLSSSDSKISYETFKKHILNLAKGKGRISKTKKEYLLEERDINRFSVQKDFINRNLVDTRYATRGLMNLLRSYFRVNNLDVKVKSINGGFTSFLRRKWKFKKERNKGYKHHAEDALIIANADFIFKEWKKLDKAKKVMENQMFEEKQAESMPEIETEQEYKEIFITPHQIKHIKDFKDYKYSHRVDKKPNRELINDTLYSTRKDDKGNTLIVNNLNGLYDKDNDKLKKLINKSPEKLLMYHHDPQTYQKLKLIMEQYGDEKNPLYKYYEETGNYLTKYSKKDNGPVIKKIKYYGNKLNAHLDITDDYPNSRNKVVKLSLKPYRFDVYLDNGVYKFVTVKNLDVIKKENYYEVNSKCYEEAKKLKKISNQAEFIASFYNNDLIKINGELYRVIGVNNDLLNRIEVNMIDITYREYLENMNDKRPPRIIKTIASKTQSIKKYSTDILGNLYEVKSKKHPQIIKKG
Procedure, shortened: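 Cas9 RNP (1:1.2 protein:gRNA) pre-formed in 20 mM Tris-HCl pH 7.5, 100 mM KCl, 5 mM MgCl2, used at 10 nM (2× stock) with Alexa-Fluor 647 substrate/quencher at 1 nM/5 nM (2× stock). Reaction ran 2.5 h at 37°C; strand displacement read as fluorescence. Hits called by Z-score: 3–5σ weak, >5σ strong.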

Compound	Average Normalized Z score (SpCas9)	avg z score primary (SpCas9)	Normalized Z score 1 (SpCas9)	Normalized Z score 2 (SpCas9)	Average Normalized Z score (SpCas9; average of replicates)	Auto Zscore Rep 1 (SaCas9)	Auto Zscore Rep 2 (SaCas9)	Normalized Zscore Rep 1 (SaCas9)	Normalized Zscore Rep 2 (SaCas9)	3 sigma Hit (SaCas9)	5 sigma Hit (SaCas9)
COc1ccc(C(=O)Oc2cc(-c3ccc(OC)c(OC)c3)cc(=O)c3c(C)oc(C)c23)cc1 [Compound D132-0053]	0.20	3.32	0.21	0.19	–	–	–	–	–	–	–
CCCCC(=O)Nc1ccc(N2CCC(C(N)=O)(N3CCCCC3)CC2)c(C(=O)O)c1 [Compound G889-0171]	0.07	3.38	0.07	0.07	–	–	–	–	–	–	–
CN1CCN(c2ccc(CNC(=O)Cn3ccc4c(SCc5ccccc5)nccc43)cc2)CC1 [Compound M056-0617]	–	4.82	0.05	0.07	0.06	–	–	–	–	–	–
O=C([O-])C(O)Cc1ccc(O)c(O)c1.[Na+] (stereo not drawn) [Compound S2401]	–	4.93	0.22	0.29	0.25	–	–	–	–	–	–
Cl.NC(CO)C(=O)NNCc1ccc(O)c(O)c1O (stereo not drawn) [Compound S2453]	–	5.09	0.21	0.32	0.26	–	–	–	–	–	–
CCCN(CCC)C1=CC(=O)C(C)=C(C)C1=O [Compound T0502-3042]	–	4.92	0.32	0.30	0.31	–	–	–	–	–	–
CCN(Cc1ccccc1)c1ccc(NS(=O)(=O)c2c(C)cc(C)cc2C)cc1C(=O)O [Cpd F294-0002]	–	–	–	–	–	−0.1185	0.01199	0.2241	0.205	1	1
CCN(Cc1ccccc1)c1ccc(NS(=O)(=O)c2ccccc2)cc1C(=O)O [Cpd F294-0004]	–	–	–	–	–	−1.138	−1.139	0.2186	0.1863	1	–
CCN(Cc1ccccc1)c1ccc(NS(=O)(=O)CC)cc1C(=O)O [Cpd F294-0006]	–	–	–	–	–	−0.2858	−0.7265	0.1668	0.1791	1	–
CCN(Cc1ccccc1)c1ccc(NS(C)(=O)=O)cc1C(=O)O [Cpd F294-0009]	–	–	–	–	–	0.01198	0.247	0.1769	0.155	1	–
CCN(Cc1ccccc1)c1ccc(NS(=O)(=O)c2cc(C)ccc2C)cc1C(=O)O [Cpd F294-0010]	–	–	–	–	–	−0.2001	1.494	0.1692	0.1845	1	–
CCN(Cc1ccccc1)c1ccc(NS(=O)(=O)c2cc(OC)ccc2OC)cc1C(=O)O [Cpd F294-0012]	–	–	–	–	–	−1.677	−1.264	0.1772	0.1434	1	–
O=C(O)c1cc(NS(=O)(=O)N2CCOCC2)ccc1N1CCCC(CN2CCCC2)C1 (stereo not drawn) [Cpd F294-1002]	–	–	–	–	–	−0.7997	−0.2997	0.2452	0.1681	1	1
Cc1cccc(NC(=O)C2CCCN(c3ccc(-c4ccccc4)nn3)C2)c1 (stereo not drawn) [Cpd F305-0007]	–	–	–	–	–	−0.4204	−0.1511	0.1614	0.1636	1	–
COc1ccc(-c2nc(N)s[n+]2-c2ccccc2)cc1 [Cpd T0501-2049]	–	–	–	–	–	0.5613	0.7691	0.6053	0.6033	1	1
C=C1C(C(=O)NCc2ccco2)C1C(=O)NCc1ccco1 (stereo not drawn) [Cpd T0501-2919]	–	–	–	–	–	0.7411	0.4717	0.507	0.5892	1	1
O=C1c2cccc3cccc(c23)N1S(=O)(=O)c1cccs1 [Cpd T0503-3218]	–	–	–	–	–	1.379	1.343	0.1426	0.123	1	–
Cc1ccc(C)c(SCC(=O)NC(C)C(c2ccccc2)N2CCOCC2)c1 (stereo not drawn) [Cpd T0507-0044]	–	–	–	–	–	1.662	−1.14	0.2923	0.2417	1	1
O=C(CSc1ccc2ccccc2c1)N1CCN(c2ccc(O)cc2)CC1 [Cpd T0508-7813]	–	–	–	–	–	−2.33	−1.326	0.1931	0.165	1	–
O=C(CSc1ccc2ccccc2c1)NCCc1ccc(O)c(O)c1 [Cpd T0509-3636]	–	–	–	–	–	0.8861	0.3048	0.4351	0.3562	1	1
Cc1ccc(C)n1CCN1CCN(S(=O)(=O)c2ccccc2)CC1 [Cpd T0510-3387]	–	–	–	–	–	1.126	−0.9366	0.1436	0.1737	1	–
O=C(CSc1nnc2ccccn12)N1CCc2ccccc2C1 [Cpd T0512-2617]	–	–	–	–	–	−1.3165	0.881	0.3066	0.3358	1	1
Cc1cc(Nc2ccccc2)n(-c2ccccc2C(=O)O)n1 [Cpd T0513-3165]	–	–	–	–	–	0.05393	−1.233	0.4933	0.4517	1	1
O=C1CC(NC(=O)c2ccc(Cl)cc2)C(=O)N1 (stereo not drawn) [Cpd T0513-4457]	–	–	–	–	–	0.257	0.3998	0.4361	0.4132	1	1
